In article PMC7587962, “Evaluation of Cytotoxicity and α-Glucosidase Inhibitory Activity of Amide and Polyamino-Derivatives of Lupane Triterpenoids” (Molecules, 2020):

How the values were obtained:
CCRF-CEM = test: NCI-60 SRB screen: leukemia CCRF-CEM; type: cell-based; details: Homo sapiens, 48 h
K-562 = test: NCI-60 SRB screen: leukemia K-562; type: cell-based, human; details: K-562
MOLT-4 = test: NCI-60 SRB screen: leukemia MOLT-4; type: cell-based; details: Homo sapiens, 48 h, MOLT-4
RPMI-8226 = test: NCI-60 SRB screen: leukemia RPMI-8226; type: cell-based; details: Homo sapiens, 48 h, RPMI-8226
A549/ATCC = test: NCI-60 SRB screen: non-small cell lung cancer A549/ATCC; type: cell-based, human; details: A549/ATCC
EKVX = test: NCI-60 SRB screen: non-small cell lung cancer EKVX; type: cell-based, human
HOP-62 = test: NCI-60 SRB screen: non-small cell lung cancer HOP-62; type: cell-based, human; details: HOP-62
HOP-92 = test: NCI-60 SRB screen: non-small cell lung cancer HOP-92; type: cell-based, human; details: HOP-92
NCI-H23 = test: NCI-60 SRB screen: non-small cell lung cancer NCI-H23; type: cell-based, human; details: NCI-H23
NCI-H322M = test: NCI-60 SRB screen: non-small cell lung cancer NCI-H322M; type: cell-based, human
NCI-H460 = test: NCI-60 SRB screen: non-small cell lung cancer NCI-H460; type: cell-based; details: Homo sapiens, 48 h, NCI-H460
HCC-2998 = test: NCI-60 SRB screen: colon cancer HCC-2998; type: cell-based, human; details: HCC-2998
HT29 = test: NCI-60 SRB screen: colon cancer HT29; type: cell-based; details: Homo sapiens, HT29
KM12 = test: NCI-60 SRB screen: colon cancer KM12; type: cell-based, human; details: KM12
SF-268 = test: NCI-60 SRB screen: CNS cancer SF-268; type: cell-based, human; details: SF-268
SF-295 = test: NCI-60 SRB screen: CNS cancer SF-295; type: cell-based, human; details: SF-295
SF-539 = test: NCI-60 SRB screen: CNS cancer SF-539; type: cell-based, human; details: SF-539
SNB-75 = test: NCI-60 SRB screen: CNS cancer SNB-75; type: cell-based, human; details: SNB-75
U251 = test: NCI-60 SRB screen: CNS cancer U251; type: cell-based; details: Homo sapiens, U251
MALME-3M = test: NCI-60 SRB screen: melanoma MALME-3M; type: cell-based, human; details: MALME-3M
MDA-MB-435 = test: NCI-60 SRB screen: melanoma MDA-MB-435; type: cell-based, human; details: MDA-MB-435
SK-MEL-5 = test: NCI-60 SRB screen: melanoma SK-MEL-5; type: cell-based, human; details: SK-MEL-5
IGROV1 = test: NCI-60 SRB screen: ovarian cancer IGROV1; type: cell-based, human; details: IGROV1
OVCAR-3 = test: NCI-60 SRB screen: ovarian cancer OVCAR-3; type: cell-based, human; details: OVCAR-3
OVCAR-5 = test: NCI-60 SRB screen: ovarian cancer OVCAR-5; type: cell-based, human; details: OVCAR-5
OVCAR-8 = test: NCI-60 SRB screen: ovarian cancer OVCAR-8; type: cell-based, human; details: OVCAR-8
ACHN = test: NCI-60 SRB screen: renal cancer ACHN; type: cell-based, human
CAKI-1 = test: NCI-60 SRB screen: renal cancer CAKI-1; type: cell-based, human; details: CAKI-1
RXF 393 = test: NCI-60 SRB screen: renal cancer RXF 393; type: cell-based, human; details: RXF 393
TK-10 = test: NCI-60 SRB screen: renal cancer TK-10; type: cell-based, human; details: TK-10
DU-145 = test: NCI-60 SRB screen: prostate cancer DU-145; type: cell-based, human; details: DU-145
MDA-MB-231/ATCC = test: NCI-60 SRB screen: breast cancer MDA-MB-231/ATCC; type: cell-based; details: Homo sapiens, 48 h
HS 578T = test: NCI-60 SRB screen: breast cancer HS 578T; type: cell-based, human; details: HS 578T
T-47D = test: NCI-60 SRB screen: breast cancer T-47D; type: cell-based, human; details: T-47D
NSCL cancer subpanel = test: NCI-60 screen, subpanel NSCL cancer
Renal Cancer subpanel = test: NCI-60 screen, subpanel Renal Cancer
Ovarian Cancer subpanel = test: NCI-60 screen, subpanel Ovarian Cancer
[1] = single dose 10 µM, read-out: Percentage Cell Growth
[2] = five concentrations, SRB, read-out: GI50
[3] = Homo sapiens, five concentrations, 48 h, SRB, read-out: GI50

Question: Which activity at 10 µM (CCRF-CEM; [1]) does the source give for C=C(C)[C@@H]1CC[C@]2(C(=O)OC)CC[C@]3(C)[C@H](CC[C@@H]4[C@@]5(C)CCC(=NOCCC(=NOCCC#N)NCCC#N)C(C)(C)[C@@H]5CC[C@]43C)[C@@H]12 [Compound 21] here?
Answer: 7.42%

Question: And the GI50 (CCRF-CEM; [2])?
Answer: 11.7 µM

Question: What about the GI50 (K-562; Homo sapiens, K562, five concentrations, 48 h, SRB, read-out: GI50) of the same compound?
Answer: 2.23 µM

Question: And the “Percentage Cell Growth” value (K-562; single dose 10 µM)?
Answer: 5.42%

Question: What about the activity at 10 µM (MOLT-4; [1]) of the same compound?
Answer: -26.8%

Question: What about the GI50 (MOLT-4; [2]) of the same compound?
Answer: 2.52 µM

Question: What about the activity at 10 µM (RPMI-8226; [1]) of the same compound?
Answer: 3.28%

Question: What about the GI50 (RPMI-8226; [2]) of the same compound?
Answer: 4.91 µM

Question: What about the “Percentage Cell Growth” value (A549/ATCC; single dose 10 µM) of the same compound?
Answer: 15.82%

Question: What about the GI50 (A549/ATCC; [3]) of the same compound?
Answer: 5.27 µM

Question: What about the GI50 (EKVX; [3]) of the same compound?
Answer: 4.77 µM

Question: What about the “Percentage Cell Growth” value (EKVX; single dose 10 µM) of the same compound?
Answer: 53.13%

Question: What about the “Percentage Cell Growth” value (HOP-62; single dose 10 µM) of the same compound?
Answer: 32.54%

Question: And the GI50 (HOP-62; [3])?
Answer: 12.5 µM

Question: And the “Percentage Cell Growth” value (HOP-92; single dose 10 µM)?
Answer: −14.95%

Question: What about the GI50 (HOP-92; [3]) of the same compound?
Answer: 6.9 µM

Question: What about the GI50 (NCI-H23; [3]) of the same compound?
Answer: 7.59 µM

Question: And the “Percentage Cell Growth” value (NCI-H23; single dose 10 µM)?
Answer: 21.79%

Question: What about the GI50 (NCI-H322M; [3]) of the same compound?
Answer: > 50 µM

Question: What about the “Percentage Cell Growth” value (NCI-H322M; single dose 10 µM) of the same compound?
Answer: 46.12%

Question: And the activity at 10 µM (NCI-H460; [1])?
Answer: 4.23%

Question: What about the GI50 (NCI-H460; [2]) of the same compound?
Answer: 11.1 µM

Question: And the “Percentage Cell Growth” value (HCC-2998; single dose 10 µM)?
Answer: 26.92%

Question: What about the GI50 (HCC-2998; [3]) of the same compound?
Answer: 13.8 µM

Question: And the activity at 10 µM (HT29; HT-29, 48 h, single dose 10 µM, read-out: Percentage Cell Growth)?
Answer: 3.88%

Question: And the GI50 (HT29; HT-29, five concentrations, 48 h, SRB, read-out: GI50)?
Answer: 6.7 µM

Question: What about the GI50 (KM12; [3]) of the same compound?
Answer: 9.35 µM

Question: What about the “Percentage Cell Growth” value (KM12; single dose 10 µM) of the same compound?
Answer: 10.89%

Question: What about the GI50 (SF-268; [3]) of the same compound?
Answer: 11.4 µM

Question: And the “Percentage Cell Growth” value (SF-268; single dose 10 µM)?
Answer: 29.14%

Question: And the GI50 (SF-295; [3])?
Answer: 21.4 µM

Question: What about the “Percentage Cell Growth” value (SF-295; single dose 10 µM) of the same compound?
Answer: 36.56%

Question: And the GI50 (SF-539; [3])?
Answer: 11 µM

Question: And the “Percentage Cell Growth” value (SF-539; single dose 10 µM)?
Answer: −2.29%

Question: And the GI50 (SNB-75; [3])?
Answer: 31.2 µM

Question: And the “Percentage Cell Growth” value (SNB-75; single dose 10 µM)?
Answer: 18.44%

Question: What about the activity at 10 µM (U251; U-251, 48 h, single dose 10 µM, read-out: Percentage Cell Growth) of the same compound?
Answer: -39.7%

Question: And the GI50 (U251; U-251, five concentrations, 48 h, SRB, read-out: GI50)?
Answer: 4.3 µM

Question: And the GI50 (MALME-3M; [3])?
Answer: 11.8 µM

Question: And the “Percentage Cell Growth” value (MALME-3M; single dose 10 µM)?
Answer: 25.27%

Question: What about the GI50 (MDA-MB-435; [3]) of the same compound?
Answer: 9.7 µM

Question: And the “Percentage Cell Growth” value (MDA-MB-435; single dose 10 µM)?
Answer: 14.55%

Question: And the GI50 (SK-MEL-5; [3])?
Answer: 3.02 µM

Question: And the “Percentage Cell Growth” value (SK-MEL-5; single dose 10 µM)?
Answer: −84.68%

Question: And the GI50 (IGROV1; Homo sapiens, IGROV-1, five concentrations, 48 h, SRB, read-out: GI50)?
Answer: 14.9 µM

Question: What about the “Percentage Cell Growth” value (IGROV1; single dose 10 µM) of the same compound?
Answer: 18.78%

Question: What about the GI50 (OVCAR-3; [3]) of the same compound?
Answer: 5.17 µM

Question: And the “Percentage Cell Growth” value (OVCAR-3; single dose 10 µM)?
Answer: −34.55%

Question: What about the GI50 (OVCAR-5; [3]) of the same compound?
Answer: 16.7 µM

Question: What about the “Percentage Cell Growth” value (OVCAR-5; single dose 10 µM) of the same compound?
Answer: 50.59%

Question: What about the GI50 (OVCAR-8; [3]) of the same compound?
Answer: 9.66 µM

Question: What about the “Percentage Cell Growth” value (OVCAR-8; single dose 10 µM) of the same compound?
Answer: 13.17%

Question: What about the GI50 (ACHN; [3]) of the same compound?
Answer: 10.5 µM

Question: And the “Percentage Cell Growth” value (ACHN; single dose 10 µM)?
Answer: 13.94%

Question: What about the “Percentage Cell Growth” value (CAKI-1; single dose 10 µM) of the same compound?
Answer: 18.52%

Question: What about the GI50 (CAKI-1; [3]) of the same compound?
Answer: 10.2 µM

Question: And the GI50 (RXF 393; [3])?
Answer: 5.64 µM

Question: And the “Percentage Cell Growth” value (RXF 393; single dose 10 µM)?
Answer: −43.14%

Question: What about the GI50 (TK-10; [3]) of the same compound?
Answer: 13.8 µM

Question: What about the “Percentage Cell Growth” value (TK-10; single dose 10 µM) of the same compound?
Answer: 37.88%

Question: And the “Percentage Cell Growth” value (DU-145; single dose 10 µM)?
Answer: 27.53%

Question: And the GI50 (DU-145; [3])?
Answer: 13.4 µM

Question: And the activity at 10 µM (MDA-MB-231/ATCC; MDA-MB-231/ATCC, single dose 10 µM, read-out: Percentage Cell Growth)?
Answer: 5.09%

Question: And the GI50 (MDA-MB-231/ATCC; MDA-MB-231, MDA-MB-31/ATCC, five concentrations, SRB, read-out: GI50)?
Answer: 10.3 µM

Question: And the “Percentage Cell Growth” value (HS 578T; single dose 10 µM)?
Answer: 24.26%

Question: What about the GI50 (HS 578T; [3]) of the same compound?
Answer: 30.2 µM

Question: What about the GI50 (T-47D; Homo sapiens, T47D, five concentrations, 48 h, SRB, read-out: GI50) of the same compound?
Answer: 3.47 µM

Question: What about the “Percentage Cell Growth” value (T-47D; single dose 10 µM) of the same compound?
Answer: 15.11%

Question: And the “MID b, average sensitivity of all cell line of particular subpanel” value (“MID b, average sensitivity” for short) (NSCL cancer subpanel)?
Answer: 12.43 µM

Question: And the “Selectivity, ratio MID a: MID b” value (NSCL cancer subpanel)?
Answer: 0.83

Question: And the “MID b, average sensitivity” value (Renal Cancer subpanel)?
Answer: 11.39 µM

Question: And the “Selectivity, ratio MID a: MID b” value (Renal Cancer subpanel)?
Answer: 0.89

Question: What about the “MID b, average sensitivity” value (Ovarian Cancer subpanel) of the same compound?
Answer: 11.86 µM

Question: What about the “Selectivity, ratio MID a: MID b” value (Ovarian Cancer subpanel) of the same compound?
Answer: 0.86
